Holding throughout (experiment): relative viability (nuclei count vs DMSO), 5 days (fraction); higher = more cells survive
Compound in the assay “Bemcentinib + Olaparib”: Nc1nc(Nc2ccc3c(c2)CC[C@@H](N2CCCC2)CC3)nn1-c1cc2c(nn1)-c1ccccc1CCC2 [Bemcentinib] + O=C(c1cc(Cc2n[nH]c(=O)c3ccccc23)ccc1F)N1CCN(C(=O)C2CC2)CC1 [Olaparib] (partner 8 µM)
The method in brief:
(§1)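 Relative viability divides the nuclei count in treated wells by that in vehicle wells. Lung cancer cell lines were seeded in 1536-well plates, dosed by pin tool the next day, and fixed and stained after 5 days in one step with final 0.05% Triton X-100, 1% formaldehyde and 1 ug/ml Hoechst. Dosing was a single drug or a fixed anchor-drug dose plus five library-drug doses (not always all listed) in √10 steps, and values are medians of duplicate plates imaged at 4×.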

Compound in assay [1]: CC1=CC=C(C=C1)C(=O)CN2C3=C(CCCC3)SC2=N [Pifithrin_alpha] + NC(=O)Nc1cc(-c2cccc(F)c2)sc1C(=O)N[C@H]1CCCNC1 [AZD7762] (partner 0.2 µM)
Put shortly: as §1

Compound in the assay “Axitinib + Luminespib”: CNC(=O)c1ccccc1Sc1ccc2c(/C=C/c3ccccn3)n[nH]c2c1 [Axitinib] + CCNC(=O)c1noc(-c2cc(C(C)C)c(O)cc2O)c1-c1ccc(CN2CCOCC2)cc1 [Luminespib] (partner 0.01 µM)
Put shortly:
as §1

Compound in the assay “Bemcentinib + Pemetrexed”: Nc1nc(Nc2ccc3c(c2)CC[C@@H](N2CCCC2)CC3)nn1-c1cc2c(nn1)-c1ccccc1CCC2 [Bemcentinib] + Nc1nc2[nH]cc(CCc3ccc(C(=O)N[C@@H](CCC(=O)O)C(=O)O)cc3)c2c(=O)[nH]1 [Pemetrexed] (partner 0.2 µM)
Put shortly:
as §1

As for NCI-H650, the relative viability in the assay with Bemcentinib + Olaparib (first compound 0.04 µM) stood at 0.402; with Bemcentinib + Olaparib (first compound 0.1265 µM) it was 0.424; with Bemcentinib + Olaparib (first compound 0.4 µM) it was 0.42; in the assay with Bemcentinib + Olaparib (first compound 1.265 µM) it was 0.424; with Bemcentinib + Olaparib (first compound 4 µM), 0.36; in assay [1] (first compound 3.162 µM), 1.08. In addition, the relative viability worked out at 0.932 in assay [1] (first compound 10 µM); 0.718 in assay [1] (first compound 31.62 µM); 0.905 in assay [1] (first compound 100 µM); 0.798 with Axitinib + Luminespib (first compound 0.005 µM); 0.766 with Axitinib + Luminespib (first compound 0.01581 µM); 0.589 with Axitinib + Luminespib (first compound 0.05 µM). The relative viability with Axitinib + Luminespib (first compound 0.1581 µM) is 0.764; with Axitinib + Luminespib (first compound 0.5 µM), 0.822; in the assay with Bemcentinib + Pemetrexed (first compound 0.04 µM), 0.843; in the assay with Bemcentinib + Pemetrexed (first compound 0.1265 µM), 1.06; with Bemcentinib + Pemetrexed (first compound 0.4 µM), 1.09; in the assay with Bemcentinib + Pemetrexed (first compound 1.265 µM), 0.941. Besides, the relative viability in the assay with Bemcentinib + Pemetrexed (first compound 4 µM) was found to be 1.01.
